Holding throughout (test): SIRT1 inhibition assay, OAcADPr mass spectrometry
Common to all, as to format: biochemical

For one test, the target named is T1, full-length hSIRT1 T219A (Homo sapiens, UniProt Q96EB6, T219A).
T1 construct: The following point mutants of full-length hSIRT1 were generated; His6 (C); made in house
T1 sequence (Q96EB6 1-747 T219A): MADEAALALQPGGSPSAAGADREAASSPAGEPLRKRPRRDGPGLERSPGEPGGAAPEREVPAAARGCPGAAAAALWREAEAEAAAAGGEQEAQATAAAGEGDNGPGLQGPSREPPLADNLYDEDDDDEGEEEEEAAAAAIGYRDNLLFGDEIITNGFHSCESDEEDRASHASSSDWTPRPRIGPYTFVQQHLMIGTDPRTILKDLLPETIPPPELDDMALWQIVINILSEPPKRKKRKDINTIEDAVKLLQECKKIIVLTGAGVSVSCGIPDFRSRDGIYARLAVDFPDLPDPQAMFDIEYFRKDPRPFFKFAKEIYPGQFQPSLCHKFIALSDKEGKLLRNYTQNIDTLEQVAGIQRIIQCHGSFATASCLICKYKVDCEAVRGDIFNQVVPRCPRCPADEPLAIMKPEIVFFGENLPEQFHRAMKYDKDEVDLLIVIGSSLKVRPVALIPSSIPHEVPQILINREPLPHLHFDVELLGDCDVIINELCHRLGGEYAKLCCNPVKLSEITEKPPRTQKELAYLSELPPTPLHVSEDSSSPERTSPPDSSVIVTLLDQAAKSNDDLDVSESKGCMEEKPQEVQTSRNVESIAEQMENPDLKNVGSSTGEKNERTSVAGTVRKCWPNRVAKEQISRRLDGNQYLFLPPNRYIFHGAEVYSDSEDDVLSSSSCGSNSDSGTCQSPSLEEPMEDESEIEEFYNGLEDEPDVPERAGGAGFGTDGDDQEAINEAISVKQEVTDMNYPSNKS

The target of the next test is T2, full-length hSIRT1 I223R (Homo sapiens, UniProt Q96EB6, I223R).
T2 construct: made in house
T2 sequence (Q96EB6 1-747 I223R): T1 sequence (Q96EB6 1-747 T219A) with A219T, I223R

The target of another test is T3, full-length hSIRT1 V224A (Homo sapiens, UniProt Q96EB6, V224A).
T3 construct: The following point mutants of full-length hSIRT1 were generated; His6 (C); made in house
T3 sequence (Q96EB6 1-747 V224A): T1 sequence (Q96EB6 1-747 T219A) with A219T, V224A

Residue numbers refer to the chain shown, from its start. Counter-ions that a name gives are not always drawn.

Broadly, the IC50 is the midpoint of a concentration-inhibition curve. In the case of `CCCC[C@H](NC(=O)[C@H](CC(C)C)NC(=O)[C@H](CCCCNC(=O)C(F)(F)F)NC(=O)[C@H](CCCCN)NC(=O)[C@H](Cc1c[nH]cn1)NC(=O)[C@H](CCCNC(=N)N)NC(C)=O)C(=O)N[C@@H](Cc1ccccc1)C(N)=O` [TFA-p53 7-mer, Ac-RHK-K^TFA-L-Nle-F-NH2], the values for the IC50 against full-length hSIRT1 T219A, against full-length hSIRT1 I223R and on full-length hSIRT1 V224A were 490 ± 20 nM, 660 ± 60 nM and 860 ± 80 nM, respectively.
